We go through five compounds from patent US20180113115A1, “SCREENING ASSAYS BASED ON MAG AND/OR ABHD6 FOR SELECTING INSULIN SECRETION PROMOTING AGENT” (VAL-CHUM, LIMITED PARTNERSHIP, priority 2010, published 2018).

Structures are written as SMILES. “Also recorded” adds a separate entry of the source.

For assay [1], the system named is rat islets. Conditions: lipolysis inhibition by pan-lipase inhibitors; cited from earlier work.
Assay [2] relates to β-cell. Particulars: inhibition of β-cell plasma membrane DAG lipase activity; cited from earlier work.
Assay [3] relates to TRPV1-R. Conditions: cited from earlier work.
The target in assay [4] is TRPV1-R (Homo sapiens, UniProt Q8NER1). Conditions: both in vitro and in vivo; cited from earlier work.
Sequence of TRPV1-R (Homo sapiens, UniProt Q8NER1) (Q8NER1 whole entry): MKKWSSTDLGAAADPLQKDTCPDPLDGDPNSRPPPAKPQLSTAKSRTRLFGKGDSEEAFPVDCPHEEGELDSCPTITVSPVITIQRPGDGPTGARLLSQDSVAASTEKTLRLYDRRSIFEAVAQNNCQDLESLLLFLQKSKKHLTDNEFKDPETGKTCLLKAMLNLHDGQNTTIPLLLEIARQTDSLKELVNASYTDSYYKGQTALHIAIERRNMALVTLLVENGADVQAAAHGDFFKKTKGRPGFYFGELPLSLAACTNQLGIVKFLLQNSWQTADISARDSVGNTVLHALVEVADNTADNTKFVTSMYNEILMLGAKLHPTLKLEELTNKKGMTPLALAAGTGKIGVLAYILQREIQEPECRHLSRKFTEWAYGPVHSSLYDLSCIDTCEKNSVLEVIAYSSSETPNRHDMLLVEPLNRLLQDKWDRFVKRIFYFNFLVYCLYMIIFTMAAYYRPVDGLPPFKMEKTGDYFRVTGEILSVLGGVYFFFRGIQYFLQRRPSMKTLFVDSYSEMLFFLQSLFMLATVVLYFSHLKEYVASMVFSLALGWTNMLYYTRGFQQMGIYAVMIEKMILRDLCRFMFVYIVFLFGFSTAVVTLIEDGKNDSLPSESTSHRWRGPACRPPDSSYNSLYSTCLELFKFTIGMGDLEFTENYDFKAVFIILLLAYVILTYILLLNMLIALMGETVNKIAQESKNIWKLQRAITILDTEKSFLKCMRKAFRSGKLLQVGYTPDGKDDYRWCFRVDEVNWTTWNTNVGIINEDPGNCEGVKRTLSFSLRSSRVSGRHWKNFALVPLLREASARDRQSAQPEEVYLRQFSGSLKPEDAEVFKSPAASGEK
The test system of assay [5] is INS 832/13 cells. Nature of the assay: Insulin secretion measurement in INS 832/13 cells (static incubation). Type of assay: cell-based. Particulars: for glucose-stimulated insulin secretion (GSIS): increasing glucose (5 and 10 mM), 10 μM WWL70, 50 μM orlistat, 1 μM JZL184. Here is the method: (§1) INS 832/13 cells (Hohmeir et al.) were cultured at 37° C. in a humidified atmosphere containing 5% CO2 in RPMI 1640 with sodium bicarbonate, supplemented with 10% (v/v) fetal calf serum (Wisent), 10 mM HEPES, pH 7.4, 2 mM L-glutamine, 1 mM sodium pyruvate and 50 μM β-mercaptoethanol (complete RPMI). Cells were grown to 80% confluence. Media were changed to RPMI 1640 containing 3 mM glucose supplemented as the complete RPMI 24 h prior to the experiments. Insulin secretion incubations were conducted in Krebs-Ringer bicarbonate buffer containing 10 mM HEPES, pH 7.4 (KRBH).
INS 832/13 cells were washed in KRBH containing 1 mM glucose and 0.5% defatted BSA (KRBH 1G/0.5% BSA) and pre-incubated for 45 min in KRBH 1G/0.5% BSA in presence of pharmacological agents (at indicated concentrations) or vehicle (DMSO). […] When examining the effect of 2-AG, it was added to cells at 0 to 1 μM concentration at 2 mM and 10 mM glucose. Insulin secretion from INS 832/13 cells was measured from either 45-min or 2-h static incubations in KRBH containing various glucose concentrations, 0.5% defatted BSA and pharmacological agents or vehicle, with or without 35 mM KCl or 0.3 mM palmitate, as specified.

Assay [6] deals with INS832/13 cell membrane extracts. As to the kind of experiment: 1-OG (MAG) hydrolysis by cell membrane extracts, released oleic acid by HPLC. Particulars: 50 μM 1-oleoylglycerol, 1 h at 30° C. Type of assay: biochemical. Here is the method: 8 μg of […] cell membrane extracts were incubated with 50 μM of MAG (1-oleoylglycerol) and the indicated inhibitors for 1 h at 30° C. Released oleic acid was measured by HPLC after Dole's extraction and derivatization with bromoacetaminophenone.

Assay [7] concerns INS 832/13 cells. Nature of the assay: Effect of lipase inhibitors on [U-14C]-glucose incorporation into lipids. Type of assay: cell-based. Particulars: for glucose incorporation into 1-monoacylglycerol (1-MAG) / glucose incorporation into 2-monoacylglycerol (2-MAG) / glucose incorporation into diacylglycerol (DAG) / glucose incorporation into triglycerides (TG): 10 μM WWL70, 1 μM JZL184. The protocol:
as §1
INS 832/13 cells were incubated overnight at 11 mM [U-^14C]-glucose in RPMI medium in a CO2-incubator in order to pre-label all the lipids in the cells. Then the cells were washed in KRBH (1 mM [U-^14C]-glucose) and pre-incubated for 45 min in KRBH at 1 mM [U-^14C]-glucose to bring metabolism to basal level. After this, cells were further incubated for 2 h in KRBH at 1 and 10 mM [U-^14C]-glucose and the indicated inhibitors. […] Then the cells were washed rapidly and flash-frozen in liquid nitrogen and extracted for lipids. Lipids were separated by TLC and the associated radioactivity was quantified. Neutral lipids were separated on boric acid/silica gel-TLC, with two solvent systems, first petroleum ether: diethyl ether: acetic acid (70:30:1), followed by second solvent system up to half of the plates, chloroform: acetone: acetic acid (60:40:1). Phospholipids were separated with a solvent system, chloroform: methanol: water (65:25:4).

Assay [8] concerns the target ABHD12. Particulars: cited from earlier work.
Assay [9] deals with INS 832/13 cells. As to the kind of experiment: [1-14C]-arachidonic acid incorporation into 1-AG and 2-AG. Type of assay: cell-based. The protocol:
FIG. 2A and FIG. 2B illustrate that glucose stimulates the incorporation of [1-^14C]-arachidonic acid into 1-AG and 2-AG in INS 832/13 cells. Incorporation of [1-^14C]-arachidonic acid (nmol/mg protein) is shown in function of various compounds. Results are shown for low (2 mM, 2G, white) and high (10 mM, 10G, dotted) glucose concentration. […] (n=6; *** p<0.001). Results are shown in nmol/mg protein for different cellular compounds (PL=phospholipids, 1-AG=1-monoarachidonylglycerol, 2-AG=2-monoarachidonylglycerol, NEFA=non-esterified fatty acids, 1,2-DAG=1,2-diacylglycerol, 1,3-DAG=1,3-diacylglycerol, TG=triacylglycerol).

The subject of assay [10] is MAG lipase (MAGL). Particulars: cited from earlier work.
For assay [11], the system named is isolated CD1 mouse islets. Nature of the assay: GSIS in isolated CD1 mouse islets. Format: cell-based. Conditions: 20 μM WWL70 or 20 μM AMG9810 alone. From the text:
(§2) All procedures were approved by the Institutional Committee for the Protection of Animals at the Centre Hospitalier de l'Université de Montreal Research Center. Wistar rats or […] mice or CD1 mice (all male) from Charles River (St-Constant, QC, Canada) were anaesthetized with Somnotol® (MTC Pharmaceuticals, Canada) and sacrificed by exsanguination. Pancreatic islets were isolated by collagenase (type XI from Sigma) digestion of total pancreas (Gotoh et al.), followed by separation (centrifugation at 1040×g) on a Histopaque™ 1119, 1077 (Sigma) gradient. Isolated islets were handpicked and cultured overnight in a petri dish at 37° C. in a humidified atmosphere containing 5% CO2 in RPMI 1640 with sodium bicarbonate, supplemented with 10% fetal calf serum, 10 mM HEPES pH 7.4, 2 mM L-glutamine, 1 mM sodium pyruvate, 100 U/mL penicillin and 100 μg/mL streptomycin.
(§3) For insulin secretion from rat, mouse or human islets, batches of 10 islets were washed in KRBH containing 2.8 mM glucose and 0.5% defatted BSA, and pre-incubated for 45 min in KRBH containing 2.8 mM glucose, 0.5% defatted BSA and different pharmacological agents (at indicated concentrations) or DMSO. Islets were then incubated for either 45 min or 2 h in KRBH containing various glucose concentrations or 2.8 mM glucose plus 35 mM KCl, 0.5% defatted BSA in the presence or absence of drugs (at indicated concentrations) or vehicle (DMSO). At the end of the incubation, media were collected and insulin extracted from cells or islets in acid-ethanol (1.5% HCl, 75% ethanol). Total insulin contents and media insulin concentrations were determined by radioimmunoassay using human insulin standards (Linco Research, Mo.).

Assay [12] relates to human intact islets. As to the kind of experiment: GSIS in human intact islets. Type of assay: cell-based. Conditions: 20 μM WWL70 or 20 μM AMG9810 alone; one donor. Here is the method:
Human islets were obtained from the Human Islet Isolation Core of MDRC, following appropriate ethical guidelines. The donor was a […] without any known metabolic disease. Islets were hand-picked and cultured overnight before use. Both rodent and human islets were also treated with trypsin to disperse islet cells and then cultured overnight in RPMI complete medium. These overnight cultured dispersed islets cells were then used for examining the effect of various pharmacological agents.
as §3

Assay [13] concerns isolated C57Bl6 mouse islets. As to the kind of experiment: GSIS in isolated C57Bl6 mouse islets. Type of assay: cell-based. Particulars: 20 μM WWL70 or 20 μM AMG9810 alone; 2.8 and 11.1 mM glucose.
From the text: as §2, §3

Assay [14] relates to dispersed rat islet cells. As to the kind of experiment: GSIS in dispersed rat islet cells. Format: cell-based. Conditions: 20 μM WWL70, 20 μM AMG9810 or combination.
From the text: as §2, with “streptomycin. […]” for “streptomycin.”
(§4) For insulin secretion from rat, mouse or human islets, batches of 10 islets were washed in KRBH containing 2.8 mM glucose and 0.5% defatted BSA, and pre-incubated for 45 min in KRBH containing 2.8 mM glucose, 0.5% defatted BSA and different pharmacological agents (at indicated concentrations) or DMSO. […] Total insulin contents and media insulin concentrations were determined by radioimmunoassay using human insulin standards (Linco Research, Mo.).

Assay [15] deals with CD1 mice. Nature of the assay: Oral glucose tolerance test (OGTT). Format: in vivo, mouse. Particulars: WWL70 10 mg/kg intraperitoneally 2 h prior to oral glucose 2 g/kg. Here is the method:
Normal CD1 mice were fasted for 4 h prior to the oral glucose tolerance test (OGTT). […] Control mice (6) were given only vehicle. After 2 h, all mice were given a oral gavage of glucose (2 g/kg of body weight), followed by blood collection from the tail vein at the indicated times. Blood glucose (glucometer; Accu-Check™, Roche Applied Science) and plasma insulin (ELISA) (insulin mouse ultrasensitive electroimmunoassay, ALPCO Diagnostics, Salem, N.H.) were measured.

Assay [16] deals with rat intact islets. As to the kind of experiment: GSIS in isolated intact rat islets. Format: cell-based. Conditions: 20 μM WWL70.
From the text: as §2, §4

[17] abbreviates: 1 and 10 mM [U14C]-glucose, 50 μM orlistat, 10 μM WWL70.
[18] abbreviates: 1 and 10 mM [U14C]-glucose, 50 μM orlistat.

On to `Cc1cc(C)[nH]n1` [3,5-dimethylpyrazole], for which the GSIS entry in assay [1] is recorded as “curtailed GSIS”.

Take `O=C(NCCCCCCNC(=O)ON=C1CCCCC1)ON=C1CCCCC1` [RHC80267]: the GSIS result in assay [2] is listed as “lowered GSIS”.

In the case of `COc1cc(CNC(=O)CCCC/C=C/C(C)C)ccc1O` [capsaicin], the insulin resistance entry in assay [3] (administration of capsaicin) was “decrease insulin resistance”. In [3] (in vivo), the plasma insulin levels result is listed as “elevates plasma insulin levels”. Further, the “insulin secretion and Ca2+ influx” value in [4] is “elevate insulin secretion and Ca^2+ influx”.

`CCCCCCCCCCC[C@@H](C[C@@H]1OC(=O)[C@H]1CCCCCC)OC(=O)[C@H](CC(C)C)NC=O` [orlistat, tetrahydrolipstatin]: the insulin secretion result in assay [5] (100 μM orlistat, 2 and 10 mM glucose) is “curtails insulin secretion”. The “glucose-stimulated insulin secretion (GSIS)” value in [5] is “strongly inhibited GSIS”. Also, in assay [1], the GSIS result is “curtailed GSIS”. Further, the “1-OG hydrolysis activity (released oleic acid)” value in assay [6] was “inhibited the 1-OG hydrolysis activity”. Further, in assay [7] (1 and 10 mM [U14C]-glucose, 50 μM orlistat, 1 μM JZL184), the “release of [U14C]-free fatty acids (FFA)” value was “almost completely lowered this release”. Besides, the “glucose incorporation into phospholipids” value in assay [7] (setting [17]) was “None of the lipase inhibitors had any significant effect”. Also, in [7] (setting [18]), the “glucose incorporation into 1-monoacylglycerol (1-MAG)” value was “significantly lowered”, the “glucose incorporation into 2-monoacylglycerol (2-MAG)” value was “no effect”, the “glucose incorporation into diacylglycerol (DAG)” value was “Neither of the inhibitors had any effect” and the “glucose incorporation into triglycerides (TG)” value is on record as “TG accumulated”. For the same compound, the inhibition constant Ki in assay [8] is below 100 nM. Further, the “[1-14C]-arachidonic acid incorporation into 1-AG and 2-AG” value in assay [9] is “curtails”.

On to `CN(Cc1cccc(-c2ccncc2)c1)C(=O)Oc1ccc(-c2ccc(C(N)=O)cc2)cc1` [WWL70], for which the “portion of GSIS amplified by palmitate” value in assay [5] (10 μM WWL70, glucose + palmitate) is “not further enhanced”. Besides, in assay [5] (5 mM and 10 mM glucose), the “WWL70 concentration reaching near maximal enhancement of GSIS” value is around 10 µM. Moreover, the KCl-stimulated insulin secretion entry in assay [5] (35 mM KCl, 1 mM glucose, 10 μM WWL70 or 10 μM AMG9810) is recorded as “Neither WWL70 nor AMG9810 had any effect”. In addition, the “insulin secretion stimulated by leucine+glutamine” value in assay [5] (Gln+Leu 5 mM each, 1 mM glucose, 10 μM WWL70 or 10 μM AMG9810) was “enhanced”. Further, the “glucose-stimulated insulin secretion (GSIS)” value in assay [5] is recorded as “almost doubled the GSIS; also recorded: robust increase”. Besides, the “effect on MAG lipase (MAGL)” value in assay [10] was “no effect”. Further, the GSIS entry in assay [11] is on record as “enhanced GSIS”. Further, the GSIS entry in assay [12] was “enhancement”. The GSIS entry in assay [13] was “enhancement”. Also, the GSIS entry in assay [14] is recorded as “enhancement”. Also, in assay [15], the glycemia result is given as “better controlled the glycemia” and the plasma insulin levels result is reported as “significantly elevated”. In addition, the “1-OG hydrolysis activity (released oleic acid)” value in assay [6] is reported as “inhibited the 1-OG hydrolysis activity”. Further, the “decrease of FFA release (fraction)” value in assay [7] (10 μM WWL70) is recorded as “about ⅔”. Also, the “glucose incorporation into phospholipids” value in assay [7] (setting [17]) is “None of the lipase inhibitors had any significant effect”. Further, in assay [7] (setting [18]), the “glucose incorporation into 1-monoacylglycerol (1-MAG)” value was “elevation”, the “glucose incorporation into 2-monoacylglycerol (2-MAG)” value is “elevation”, the “glucose incorporation into diacylglycerol (DAG)” value is “Neither of the inhibitors had any effect” and the “glucose incorporation into triglycerides (TG)” value was “marginal effect”. The GSIS entry in assay [16] is recorded as “enhanced GSIS”. Besides, the “effect on ABHD12” value in assay [8] is “no effect”.

As a reminder, the Ki is a measure of affinity in units of concentration, obtained from inhibition or displacement.
